The nature of data set [1]: JP4-039 uptake in normal tissue and orthotopic tumors after intraesophageal administration (EPR). It is filed as in vivo, mouse. How it is done:
Lastly, to determine whether JP4-039 was taken up by other tissue, esophagus, lung orthotopic tumor, liver, and peripheral blood samples were taken 10, 30, and 60 minutes after intraesophageal administration of the compound. Samples were snap-frozen on dry ice and JP4-039 content was quantified by EPR analysis.
To determine if the orally-administered JP4-039 also reached other tissues and orthotopic tumors, esophagus, peripheral blood, bone marrow, liver, and 3LL orthotopic tumors were harvested at 10, 30, and 60 minutes after intraesophageal administration of JP4-039, followed by quantification by EPR. […] JP4-039 levels in peripheral blood and orthotopic tumor peaked at 30 minutes at 51.1 and 276.0 pmol/mg protein, respectively. […] Lower levels of JP4-039 were detected in bone marrow up to 60 minutes after drug swallow compared to levels in liver and tumor tissue.

Data set [2] has as its system 32D cl 3 mouse hematopoietic progenitor cell line. The data set is described as follows: Irradiation survival curves of 32D cl 3 cells (colony assay). The format is cell-based. The conditions noted are these: for ñ (shoulder on the survival curve): 0 to 8 Gy. How it is done:
Groups of 15 mice received intraperitoneal injection of 10 mg. per kilogram of each indicated GS-nitroxide compound or carrier (Cremphora plus alcohol at 1 to 1 ratio, then diluted 1 to 10 in distilled water). Mice received 10 mg per kilogram intra-peritoneal injection 24 hours prior to total body irradiation. Control mice received radiation alone. […] (P=0.0005) FIG. 6 is a graph showing that GS-nitroxide JP4-039 is an effective hematopoietic cell radiation mitigator when delivered 24 hr after irradiation. Irradiation survival curves were performed on cells from the 32D cl 3 mouse hematopoietic progenitor cell line, incubated in 10 μM JP4-039 for 1 hour before irradiation, or plated in methylcellulose containing 10 μM […] after irradiation. Cells were irradiated from 0 to 8 Gy, plated in 0.8% methylcellulose containing media, and incubated for 7 days at 37° C. Colonies of greater than 50 cells were counted and data analyzed by linear quadratic and single-hit, multi-target models.

Data set [3] can be described thus: Clearance of intravenously injected JP4-039 measured by EPR. The format is in vivo, mouse. Also on record: dose or concentration left out as unconfirmed. From the text:
FIGS. 13A-13B. Pharmacokinetics of clearance of JP4-039 intravenously injected into C57BL/6JHNsd mice in (FIG. 13A) plasma and (FIG. 13B) lung. […] Serum samples were collected and assayed. Each symbol represents an individual mouse. The methods for assay of nitroxide by EPR have been published previously (Borisenko G G, et al. J Am Chem Soc 4(30): 9221-9232, 2004 and Jiang J, et al. A mitochondria-targeted triphenylphosphonium-conjugated nitroxide functions as a radioprotector/mitigator. Radiat Res 172(6): 706-717, 2009).
Measurement of JP4-039 nitroxide in serum and in tissues by electron paramagnetic resonance. Electron paramagnetic resonance (EPR) spectra of nitroxide radicals in cells or in mitochondrial fractions were recorded after mixing with acetonitrile (1:1 v/v) after 5 min incubation with 2 mM K3Fe(CN)6 using a JEOL-RE1XEPR spectrometer (JEOL, USA, Inc., Peabody, Mass., USA) under the following conditions: 3350 G center field, 25 G scan range, 0.79 G field modulation, 20 mW microwave power, 0.1 s time constant, 4 min scan time. Under these experimental conditions, nitroxides were not detectably oxidized by […] to EPR-silent oxoamminium cations. Mitochondria-enriched fractions were obtained by differential centrifugation. […] Partitioning efficiency was calculated as a percentage of the initial signal. […] After that, samples were centrifuged at 10,000 g for 5 min, and the pellets washed twice with the incubation buffer and analyzed by EPR as described previously (Borisenko G G, et al. Nitroxides scavenge myeloperoxidase-catayzed thiyl radicals in model systems and in cells. J Am Chem Soc 4(30): 9221-9232, 2004 and Jiang J, et al. A mitochondria-targeted triphenylphosphonium-conjugated nitroxide functions as a radioprotector/mitigator. Radiat Res 172(6): 706-717, 200938-39).
Intravenous JP4-039 systemic pharmacokinetics and intraesophageal formulation mediated delivery to esophagus. […] JP4-039 was cleared from plasma by 10 min, but was detected in lung (and intestine) for over 30 minutes.

Setting [4] is: intraesophageal, F15 formulation.

Each structure is given as a SMILES string. Bounds are passed on as bounds.

On to `CC(C)C[C@@H](/C=C/CC(=O)NC1CC(C)(C)N([O])C(C)(C)C1)NC(=O)OC(C)(C)C` [JP4-039, TEMPO-4-yl-(S,E)-5-(tert-butoxycarbonylamino)-7-methyloct-3-enamide], for which, in data set [1] (setting [4]), the “time of peak level in liver” value amounted to 10 min, the “time of peak level in orthotopic tumor” value came to 30 min and the “time of peak level in peripheral blood” value is 30 min. Further, the “peak JP4-039 level in orthotopic tumor” value in data set [1] (intraesophageal, F15 formulation, 3LL tumor, at 30 minutes, EPR) is reported as 276.0 pmol/mg protein. Also, the “peak JP4-039 level in liver” value in data set [1] (intraesophageal, F15 formulation, at 10 minutes, EPR) is given as 122/2. Besides, the “peak JP4-039 level in peripheral blood” value in data set [1] (intraesophageal, F15 formulation, at 30 minutes, EPR) is recorded as 51.1 pmol/mg protein. Also, the “JP4-039 level in bone marrow compared to liver and tumor tissue” value in data set [1] (up to 60 minutes after drug swallow) is recorded as “Lower levels”. Moreover, the “ñ (shoulder on the survival curve)” value in data set [2] (10 μM for 1 hour before irradiation, cells alone 1.29±0.13, p=0.0109) was 5.25±0.84. Also, the “survival of 32D c13 cells” value in data set [2] (10 μM for one hour, 0-8 Gy irradiation, preliminary data) is listed as “increased survival”. The “ñ (shoulder on the survival curve)” value in data set [2] (10 μM in methylcellulose after irradiation, cells alone 1.29±0.13, p=0.0022) amounted to 4.55±0.47. Moreover, in data set [3], the “time detected in intestine” value was “over 30 minutes” and the “time detected in lung” value was “over 30 minutes”. For the same molecule, the “time by which cleared from plasma” value in data set [3] (intravenous in 100 μl) is at most 10 min.

For the origin of these results see US20190210969A1, “INTRAESOPHAGEAL ADMINISTRATION OF TARGETED NITROXIDE AGENTS FOR PROTECTION AGAINST IONIZING IRRADIATION-INDUCED ESOPHAGITIS” (University of Pittsburgh - Of the Commonwealth System of …, priority 2010, published 2019).
